Data published in patent US9174994B2, “Enhanced treatment regimens using mTor inhibitors” (INTELLIKINE LLC, priority 2011, dated 2015).

Assay: Phase I clinical trial: treatment-emergent adverse events (patients, n (%)), dose limiting toxicity, MTD
Format: in vivo
[1] = Table 8: Total QDx5d QW (N = 6)
[2] = Table 8: Total QW Dosing (N = 15)
[3] = all 3 intermittent dosing regimens, n=35

Protocol: Safety, maximum tolerated dose (MTD), pharmacokinetics (PK) and preliminary antitumor activity were evaluated.
Pharmacodynamic (PD) endpoints were evaluated in surrogate (peripheral blood cells [PBCs], skin) and tumor tissues for the phosphorylation of TORC1-dependent markers (4EBP1/S6), and TORC2-dependent markers (AKT/PRAS40).

Structure (SMILES): CC(C)n1nc(-c2ccc3oc(N)nc3c2)c2c(N)ncnc21 [compound A]
- Weight decreased (Table 8: Total QDx3d QW (N = 14)): 0 (0%)
- Catheter site inflammation [1]: 0 (0%)
- Catheter site pain [1]: 0 (0%)
- Coagulopathy [1]: 0 (0%)
- Confusional state [1]: 0 (0%)
- Cough [1]: 0 (0%)
- DIARRHEA [1]: 0 (0%)
- Dizziness [1]: 0 (0%)
- Dyspnoea exertional [1]: 0 (0%)
- Eye infection [1]: 0 (0%)
- Fatigue [1]: 0 (0%)
- Gastritis [1]: 0 (0%)
- Gravitational oedema [1]: 0 (0%)
- Headache [1]: 0 (0%)
- Hyperbilirubinaemia [1]: 0 (0%)
- Hypertransaminasaemia [1]: 0 (0%)
- Hypertriglyceridaemia [1]: 0 (0%)
- Hypocalcaemia [1]: 0 (0%)
- Hypomagnesaemia [1]: 0 (0%)
- Hypotension [1]: 0 (0%)
- Insomnia [1]: 0 (0%)
- Low fever [1]: 0 (0%)
- Malaise [1]: 0 (0%)
- Nausea [1]: 1 (17%)
- Oral discomfort [1]: 0 (0%)
- Orthostatic hypotension [1]: 0 (0%)
- Palmar-plantar erythrodysaesthesia syndrome [1]: 0 (0%)
- Panniculitis [1]: 0 (0%)
- Platelet count decreased [1]: 0 (0%)
- Polyuria [1]: 0 (0%)
- Pyrexia [1]: 0 (0%)
- Rash [1]: 0 (0%)
- Rash macular [1]: 0 (0%)
- Skin discolouration [1]: 0 (0%)
- Skin exfoliation [1]: 0 (0%)
- Urinary tract infection [1]: 0 (0%)
- Urine tract infection [1]: 1 (17%)
- Vomiting [1]: 1 (17%)
- WEAKNESS [1]: 0 (0%)
- Weight decreased [1]: 0 (0%)
- Catheter site inflammation [2]: 0 (0%)
- Catheter site pain [2]: 0 (0%)
- Coagulopathy [2]: 0 (0%)
- Confusional state [2]: 0 (0%)
- Cough [2]: 0 (0%)
- DIARRHEA [2]: 1 (7%)
- Dizziness [2]: 0 (0%)
- Dyspnoea exertional [2]: 0 (0%)
- Eye infection [2]: 0 (0%)
- Fatigue [2]: 0 (0%)
- Gastritis [2]: 0 (0%)
- Gravitational oedema [2]: 0 (0%)
- Headache [2]: 0 (0%)
- Hyperbilirubinaemia [2]: 0 (0%)
- Hypertransaminasaemia [2]: 0 (0%)
- Hypertriglyceridaemia [2]: 0 (0%)
- Hypocalcaemia [2]: 0 (0%)
- Hypomagnesaemia [2]: 0 (0%)
- Hypotension [2]: 0 (0%)
- Insomnia [2]: 0 (0%)
- Low fever [2]: 0 (0%)
- Malaise [2]: 1 (7%)
- Nausea [2]: 0 (0%)
- Oral discomfort [2]: 1 (7%)
- Orthostatic hypotension [2]: 0 (0%)
- Palmar-plantar erythrodysaesthesia syndrome [2]: 0 (0%)
- Panniculitis [2]: 0 (0%)
- Platelet count decreased [2]: 0 (0%)
- Polyuria [2]: 0 (0%)
- Pyrexia [2]: 0 (0%)
- Rash [2]: 1 (7%)
- Rash macular [2]: 0 (0%)
- Skin discolouration [2]: 0 (0%)
- Skin exfoliation [2]: 0 (0%)
- Urinary tract infection [2]: 0 (0%)
- Urine tract infection [2]: 0 (0%)
- Vomiting [2]: 0 (0%)
- WEAKNESS [2]: 1 (7%)
- Weight decreased [2]: 0 (0%)
- Grade 3 or greater TEAE: Abdominal pain upper (Total (N = 60)): 1 (2%)
- Grade 3 or greater TEAE: Anaemia (Total (N = 60)): 1 (2%)
- Grade 3 or greater TEAE: Aspartate aminotransferase increased (Total (N = 60)): 1 (2%)
- Grade 3 or greater TEAE: Asthenia (Total (N = 60)): 1 (2%)
- Grade 3 or greater TEAE: Catheter related infection (Total (N = 60)): 1 (2%)
- Grade 3 or greater TEAE: Cellulitis (Total (N = 60)): 1 (2%)
- Grade 3 or greater TEAE: Diarrhoea (Total (N = 60)): 3 (5%)
- Grade 3 or greater TEAE: Disease progression (Total (N = 60)): 1 (2%)
- Grade 3 or greater TEAE: Enterocutaneous fistula (Total (N = 60)): 1 (2%)
- Grade 3 or greater TEAE: Gamma-glutamyltransferase increased (Total (N = 60)): 2 (3%)
- Grade 3 or greater TEAE: Gastroenteritis (Total (N = 60)): 1 (2%)
- Grade 3 or greater TEAE: Hyperglycaemia (Total (N = 60)): 5 (8%)
- Grade 3 or greater TEAE: Hypokalaemia (Total (N = 60)): 2 (3%)
- Grade 3 or greater TEAE: Hyponatraemia (Total (N = 60)): 2 (3%)
- Grade 3 or greater TEAE: Lymphopenia (Total (N = 60)): 4 (7%)
- Grade 3 or greater TEAE: Pancreatitis acute (Total (N = 60)): 1 (2%)
- Grade 3 or greater TEAE: Pleural effusion (Total (N = 60)): 1 (2%)
- Grade 3 or greater TEAE: Pruritus (Total (N = 60)): 2 (3%)
- Grade 3 or greater TEAE: Rash (Total (N = 60)): 7 (12%)
- Grade 3 or greater TEAE: Rash macular (Total (N = 60)): 1 (2%)
- Grade 3 or greater TEAE: Somnolence (Total (N = 60)): 1 (2%)
- Grade 3 or greater TEAE: Thrombocytopenia (Total (N = 60)): 2 (3%)
- Grade 3 or greater TEAE: Urinary tract infection (Total (N = 60)): 1 (2%)
- Patients Reporting at Least One Grade 3 or Greater TEAE (Total (N = 60)): 25 (42%)
- Anaemia (Total QD Dosing (N = 25)): 2 (8%)
- Asthenia (Total QD Dosing (N = 25)): 6 (24%)
- Blood creatinine increased (Total QD Dosing (N = 25)): 6 (24%)
- Coagulopathy (Total QD Dosing (N = 25)): 1 (4%)
- Confusional state (Total QD Dosing (N = 25)): 1 (4%)
- Cough (Total QD Dosing (N = 25)): 1 (4%)
- Decreased appetite (Total QD Dosing (N = 25)): 6 (24%)
- Dehydration (Total QD Dosing (N = 25)): 2 (8%)
- Diarrhoea (Total QD Dosing (N = 25)): 8 (32%)
- Dizziness (Total QD Dosing (N = 25)): 1 (4%)
- Dry mouth (Total QD Dosing (N = 25)): 5 (20%)
- Dry skin (Total QD Dosing (N = 25)): 1 (4%)
- Dysgeusia (Total QD Dosing (N = 25)): 8 (32%)
- Dyspepsia (Total QD Dosing (N = 25)): 1 (4%)
- Dyspnoea (Total QD Dosing (N = 25)): 1 (4%)
- Dyspnoea exertional (Total QD Dosing (N = 25)): 1 (4%)
- Eye infection (Total QD Dosing (N = 25)): 1 (4%)
- Fatigue (Total QD Dosing (N = 25)): 6 (24%)
- Gastritis (Total QD Dosing (N = 25)): 1 (4%)
- Gravitational oedema (Total QD Dosing (N = 25)): 1 (4%)
- Hypercholesterolaemia (Total QD Dosing (N = 25)): 5 (20%)
- Hyperglycaemia (Total QD Dosing (N = 25)): 22 (88%)
- Hypocalcaemia (Total QD Dosing (N = 25)): 1 (4%)
- Insomnia (Total QD Dosing (N = 25)): 1 (4%)
- Lymphopenia (Total QD Dosing (N = 25)): 3 (12%)
- Mucosal inflammation (Total QD Dosing (N = 25)): 8 (32%)
- Muscle spasms (Total QD Dosing (N = 25)): 1 (4%)
- Nausea (Total QD Dosing (N = 25)): 9 (36%)
- Orthostatic hypotension (Total QD Dosing (N = 25)): 1 (4%)
- Panniculitis (Total QD Dosing (N = 25)): 1 (4%)
- Patients Reporting at Least One Related TEAE (Total QD Dosing (N = 25)): 25 (100%)
- Polyuria (Total QD Dosing (N = 25)): 1 (4%)
- Pruritus (Total QD Dosing (N = 25)): 9 (36%)
- Rash (Total QD Dosing (N = 25)): 13 (52%)
- Skin discolouration (Total QD Dosing (N = 25)): 1 (4%)
- Skin exfoliation (Total QD Dosing (N = 25)): 1 (4%)
- Thrombocytopenia (Total QD Dosing (N = 25)): 4 (16%)
- Vomiting (Total QD Dosing (N = 25)): 6 (24%)
- Weight decreased (Total QD Dosing (N = 25)): 1 (4%)
- Alanine aminotransferase increased (Total QDx3d QW (N = 14)): 1 (7%)
- Asthenia (Total QDx3d QW (N = 14)): 3 (21%)
- Catheter site inflammation (Total QDx3d QW (N = 14)): 1 (7%)
- Catheter site pain (Total QDx3d QW (N = 14)): 1 (7%)
- Decreased appetite (Total QDx3d QW (N = 14)): 1 (7%)
- Diarrhoea (Total QDx3d QW (N = 14)): 2 (14%)
- Dry skin (Total QDx3d QW (N = 14)): 1 (7%)
- Dysgeusia (Total QDx3d QW (N = 14)): 1 (7%)
- Dyspnoea (Total QDx3d QW (N = 14)): 1 (7%)
- Fatigue (Total QDx3d QW (N = 14)): 1 (7%)
- Headache (Total QDx3d QW (N = 14)): 1 (7%)
- Hyperbilirubinaemia (Total QDx3d QW (N = 14)): 1 (7%)
- Hypercholesterolaemia (Total QDx3d QW (N = 14)): 1 (7%)
- Hyperglycaemia (Total QDx3d QW (N = 14)): 6 (43%)
- Hypertransaminasaemia (Total QDx3d QW (N = 14)): 1 (7%)
- Hypertriglyceridaemia (Total QDx3d QW (N = 14)): 1 (7%)
- Hypomagnesaemia (Total QDx3d QW (N = 14)): 1 (7%)
- Hypotension (Total QDx3d QW (N = 14)): 1 (7%)
- Low fever (Total QDx3d QW (N = 14)): 1 (7%)
- Lymphopenia (Total QDx3d QW (N = 14)): 1 (7%)
- Mucosal inflammation (Total QDx3d QW (N = 14)): 7 (50%)
- Nausea (Total QDx3d QW (N = 14)): 6 (43%)
- Palmar-plantar erythrodysaesthesia syndrome (Total QDx3d QW (N = 14)): 1 (7%)
- Patients Reporting at Least One Related TEAE (Total QDx3d QW (N = 14)): 11 (79%)
- Platelet count decreased (Total QDx3d QW (N = 14)): 1 (7%)
- Pruritus (Total QDx3d QW (N = 14)): 4 (29%)
- Pyrexia (Total QDx3d QW (N = 14)): 1 (7%)
- Rash (Total QDx3d QW (N = 14)): 4 (29%)
- Rash macular (Total QDx3d QW (N = 14)): 1 (7%)
- Urinary tract infection (Total QDx3d QW (N = 14)): 1 (7%)
- Vomiting (Total QDx3d QW (N = 14)): 3 (21%)
- Asthenia (Total QDx3d QW (N = 14), 2nd Asthenia line): 1 (7%)
- Diarrhoea (Total QDx5d QW (N = 6)): 1 (17%)
- Patients Reporting at Least One Related TEAE (Total QDx5d QW (N = 6)): 2 (33%)
- Rash (Total QDx5d QW (N = 6)): 1 (17%)
- Urine tract infection (Total QDx5d QW (N = 6)): 1 (17%)
- Vomiting (Total QDx5d QW (N = 6)): 1 (17%)
- Nausea (Total QDx5d QW (N = 6), 1st Nausea line): 1 (17%)
- Nausea (Total QDx5d QW (N = 6), 2nd Nausea line): 1 (17%)
- ASTHENIA (Total QW Dosing (N = 15)): 1 (7%)
- ATHENIA (Total QW Dosing (N = 15)): 1 (7%)
- Alanine aminotransferase increased (Total QW Dosing (N = 15)): 1 (7%)
- Aspartate aminotransferase increased (Total QW Dosing (N = 15)): 2
- Asthenia (Total QW Dosing (N = 15)): 2
- Blood creatinine increased (Total QW Dosing (N = 15)): 1 (7%)
- Blood triglycerides increased (Total QW Dosing (N = 15)): 1 (7%)
- DIARRHEA (Total QW Dosing (N = 15)): 1 (7%)
- Decreased appetite (Total QW Dosing (N = 15)): 1 (7%)
- Diarrhoea (Total QW Dosing (N = 15)): 3
- Dysgeusia (Total QW Dosing (N = 15)): 1 (7%)
- Dyspepsia (Total QW Dosing (N = 15)): 1 (7%)
- HYPERGLYCEMIA (Total QW Dosing (N = 15)): 2
- Hyperglycaemia (Total QW Dosing (N = 15)): 5
- Lymphopenia (Total QW Dosing (N = 15)): 1 (7%)
- Malaise (Total QW Dosing (N = 15)): 1 (7%)
- Mucosal inflammation (Total QW Dosing (N = 15)): 3
- Muscle spasms (Total QW Dosing (N = 15)): 1 (7%)
- Nausea (Total QW Dosing (N = 15)): 10
- Oral discomfort (Total QW Dosing (N = 15)): 1 (7%)
- Patients Reporting at Least One Related TEAE (Total QW Dosing (N = 15)): 13
- Pruritus (Total QW Dosing (N = 15)): 1 (7%)
- RASH (Total QW Dosing (N = 15)): 1 (7%)
- Rash (Total QW Dosing (N = 15)): 1 (7%)
- Vomiting (Total QW Dosing (N = 15)): 5
- WEAKNESS (Total QW Dosing (N = 15)): 1 (7%)
- asthenia, AE considered possibly related [3]: 23%
- diarrhea, AE considered possibly related [3]: 20%
- hyperglycemia, AE considered possibly related [3]: 37%
- mucosal inflammation, AE considered possibly related [3]: 29%
- nausea, AE considered possibly related [3]: 51%
- rash, AE considered possibly related [3]: 23%
- vomiting, AE considered possibly related [3]: 26%
- grade of the majority of AEs considered possibly related (any regimen): Grade 1 or 2
- MTD (intermittent dosing): not reached
